The values below are quoted from earlier work in patent US20230405034A1, “FORMULATION OF IVERMECTIN IN SOFT GELATIN CAPSULES” (PROCAPS S.A., priority 2020, published 2023).

Data set [1] deals with pseudorabies DNA virus (PRV). As to conditions: ivermectin treatment; cited from earlier work.
The subject of a further data set is SARS-CoV-2. As to conditions: SARS-CoV-2 in vitro, after 48 hours; cited from earlier work.
For data set [2] the following is noted: cited from earlier work.
For data set [3] the following is noted: in vivo; cited from earlier work.

Take Ivermectin: the “survival in PRV-infected mice” value in data set [1] was “increases survival”. Besides, in the data set on SARS-CoV-2, the “reduction in viral RNA” value is recorded as “approximately 5,000 fold”. The solubility in water result in data set [2] was “practically insoluble in water”.

Turning to medium chain triglycerides, in data set [3], the plasma half-life result is recorded as “approximately 17 minutes”.
